Data from patent US12479847B2 (DANA-FARBER CANCER INSTITUTE, INC., priority 2019, dated 2025).

Experiments:
Assay in all cases: KINOMEscan (ScanMAX) kinase profiling
Format in all cases: binding
[1] = target: T1, panel of 468 kinases (Homo sapiens, UniProt Q8N568); conditions: DCAMKL2; 1 μM; read-out: % control
T1 construct: purchased KINOMEscan (ScanMAX) service

[2] = target: T2, panel of 468 kinases (Homo sapiens, UniProt P36897); conditions: TGFBR1; 1 μM; read-out: % control
T2 construct: purchased KINOMEscan (ScanMAX) service
T2 sequence (P36897 34-503): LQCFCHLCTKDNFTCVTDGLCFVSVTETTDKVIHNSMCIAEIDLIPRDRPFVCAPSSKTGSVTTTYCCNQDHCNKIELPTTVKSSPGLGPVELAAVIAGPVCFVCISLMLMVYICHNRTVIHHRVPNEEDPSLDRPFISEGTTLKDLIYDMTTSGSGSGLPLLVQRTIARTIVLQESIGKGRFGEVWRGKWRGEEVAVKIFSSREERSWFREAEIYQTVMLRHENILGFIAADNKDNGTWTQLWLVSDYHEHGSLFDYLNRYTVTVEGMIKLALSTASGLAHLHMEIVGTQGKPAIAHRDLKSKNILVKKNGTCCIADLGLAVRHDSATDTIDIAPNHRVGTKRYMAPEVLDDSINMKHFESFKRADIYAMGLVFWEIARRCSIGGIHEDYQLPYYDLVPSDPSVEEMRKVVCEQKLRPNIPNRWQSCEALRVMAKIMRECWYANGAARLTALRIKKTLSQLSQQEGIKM

[3] = target: T3, panel of 468 kinases (Homo sapiens, UniProt Q14164); conditions: IKK-epsilon; 1 μM; read-out: % control
T3 construct: purchased KINOMEscan (ScanMAX) service
T3 sequence (Q14164 1-716): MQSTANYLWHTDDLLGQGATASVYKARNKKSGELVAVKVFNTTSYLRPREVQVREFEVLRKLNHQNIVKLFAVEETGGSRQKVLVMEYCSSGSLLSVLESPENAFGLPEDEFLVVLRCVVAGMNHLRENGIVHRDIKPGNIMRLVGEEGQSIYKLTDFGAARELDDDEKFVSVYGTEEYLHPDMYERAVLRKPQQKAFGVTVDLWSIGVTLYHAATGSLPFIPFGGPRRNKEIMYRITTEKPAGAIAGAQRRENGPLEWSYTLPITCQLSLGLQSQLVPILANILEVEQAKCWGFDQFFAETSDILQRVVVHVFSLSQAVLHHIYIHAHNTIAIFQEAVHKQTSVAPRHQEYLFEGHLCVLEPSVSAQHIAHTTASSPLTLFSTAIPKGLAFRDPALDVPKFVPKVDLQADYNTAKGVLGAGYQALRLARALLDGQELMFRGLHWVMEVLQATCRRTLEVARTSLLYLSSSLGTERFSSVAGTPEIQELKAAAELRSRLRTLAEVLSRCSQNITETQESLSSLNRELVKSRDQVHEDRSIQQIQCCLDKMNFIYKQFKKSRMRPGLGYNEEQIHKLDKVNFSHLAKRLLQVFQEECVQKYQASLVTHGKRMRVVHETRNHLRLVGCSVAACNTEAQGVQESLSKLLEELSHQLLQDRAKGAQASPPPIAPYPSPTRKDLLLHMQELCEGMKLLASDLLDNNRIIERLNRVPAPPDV

[4] = target: T4, panel of 468 kinases (Homo sapiens, UniProt Q8IYT8); conditions: ULK2; 1 μM; read-out: % control
T4 construct: purchased KINOMEscan (ScanMAX) service
T4 sequence (Q8IYT8 1-1036): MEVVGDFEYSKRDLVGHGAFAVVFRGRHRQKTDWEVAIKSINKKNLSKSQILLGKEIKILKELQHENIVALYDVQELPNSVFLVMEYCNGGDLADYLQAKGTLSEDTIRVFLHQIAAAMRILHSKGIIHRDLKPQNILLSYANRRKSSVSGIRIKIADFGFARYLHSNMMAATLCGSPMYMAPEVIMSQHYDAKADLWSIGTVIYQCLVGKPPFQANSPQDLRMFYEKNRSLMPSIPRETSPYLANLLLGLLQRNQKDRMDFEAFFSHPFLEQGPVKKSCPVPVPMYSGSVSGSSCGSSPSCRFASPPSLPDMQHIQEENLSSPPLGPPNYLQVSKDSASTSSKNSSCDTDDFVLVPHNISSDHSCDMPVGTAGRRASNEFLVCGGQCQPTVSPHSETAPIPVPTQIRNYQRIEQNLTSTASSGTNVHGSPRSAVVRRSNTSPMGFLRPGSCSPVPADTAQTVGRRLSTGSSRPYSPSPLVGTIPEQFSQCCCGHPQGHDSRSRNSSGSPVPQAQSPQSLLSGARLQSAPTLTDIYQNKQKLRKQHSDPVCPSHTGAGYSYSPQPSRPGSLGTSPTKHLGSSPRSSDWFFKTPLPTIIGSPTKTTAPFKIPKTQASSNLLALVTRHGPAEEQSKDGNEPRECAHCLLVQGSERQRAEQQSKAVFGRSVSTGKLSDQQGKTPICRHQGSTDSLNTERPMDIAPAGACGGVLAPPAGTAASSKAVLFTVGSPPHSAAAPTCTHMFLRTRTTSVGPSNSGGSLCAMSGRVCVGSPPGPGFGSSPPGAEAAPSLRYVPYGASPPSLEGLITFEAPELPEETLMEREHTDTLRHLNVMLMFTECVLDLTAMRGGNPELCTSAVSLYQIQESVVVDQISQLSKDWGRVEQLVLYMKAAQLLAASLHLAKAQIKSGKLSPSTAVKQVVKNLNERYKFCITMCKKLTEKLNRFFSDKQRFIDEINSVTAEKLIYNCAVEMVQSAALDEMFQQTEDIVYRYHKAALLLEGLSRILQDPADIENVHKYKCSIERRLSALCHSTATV

[5] = target: T5, panel of 468 kinases (Homo sapiens, UniProt O75460); conditions: ERN1; 1 μM; read-out: % control
T5 construct: purchased KINOMEscan (ScanMAX) service
T5 sequence (O75460 19-977): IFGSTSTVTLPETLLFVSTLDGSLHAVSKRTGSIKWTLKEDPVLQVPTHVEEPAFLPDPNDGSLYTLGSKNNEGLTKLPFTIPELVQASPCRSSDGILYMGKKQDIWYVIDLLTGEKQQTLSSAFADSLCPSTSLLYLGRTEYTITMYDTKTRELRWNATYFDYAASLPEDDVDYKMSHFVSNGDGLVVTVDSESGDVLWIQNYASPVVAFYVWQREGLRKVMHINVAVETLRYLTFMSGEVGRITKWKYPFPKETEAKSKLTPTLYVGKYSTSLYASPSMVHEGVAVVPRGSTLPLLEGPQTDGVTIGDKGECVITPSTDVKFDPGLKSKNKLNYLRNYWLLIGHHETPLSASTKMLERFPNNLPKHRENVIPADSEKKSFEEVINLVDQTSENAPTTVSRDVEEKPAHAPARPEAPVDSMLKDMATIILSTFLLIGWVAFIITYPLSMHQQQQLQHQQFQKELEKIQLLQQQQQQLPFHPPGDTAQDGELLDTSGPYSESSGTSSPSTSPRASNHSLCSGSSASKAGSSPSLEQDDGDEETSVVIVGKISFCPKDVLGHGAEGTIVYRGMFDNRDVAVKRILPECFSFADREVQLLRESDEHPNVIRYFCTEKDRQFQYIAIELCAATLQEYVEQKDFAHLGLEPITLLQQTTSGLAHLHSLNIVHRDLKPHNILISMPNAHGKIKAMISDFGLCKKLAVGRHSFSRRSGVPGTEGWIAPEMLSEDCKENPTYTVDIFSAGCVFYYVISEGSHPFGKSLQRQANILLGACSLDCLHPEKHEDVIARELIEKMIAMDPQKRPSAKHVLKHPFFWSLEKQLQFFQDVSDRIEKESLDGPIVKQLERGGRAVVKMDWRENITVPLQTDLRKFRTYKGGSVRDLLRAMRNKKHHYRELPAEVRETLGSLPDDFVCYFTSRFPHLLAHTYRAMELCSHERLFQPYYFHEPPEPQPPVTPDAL

T1 sequence (Q8N568 whole entry): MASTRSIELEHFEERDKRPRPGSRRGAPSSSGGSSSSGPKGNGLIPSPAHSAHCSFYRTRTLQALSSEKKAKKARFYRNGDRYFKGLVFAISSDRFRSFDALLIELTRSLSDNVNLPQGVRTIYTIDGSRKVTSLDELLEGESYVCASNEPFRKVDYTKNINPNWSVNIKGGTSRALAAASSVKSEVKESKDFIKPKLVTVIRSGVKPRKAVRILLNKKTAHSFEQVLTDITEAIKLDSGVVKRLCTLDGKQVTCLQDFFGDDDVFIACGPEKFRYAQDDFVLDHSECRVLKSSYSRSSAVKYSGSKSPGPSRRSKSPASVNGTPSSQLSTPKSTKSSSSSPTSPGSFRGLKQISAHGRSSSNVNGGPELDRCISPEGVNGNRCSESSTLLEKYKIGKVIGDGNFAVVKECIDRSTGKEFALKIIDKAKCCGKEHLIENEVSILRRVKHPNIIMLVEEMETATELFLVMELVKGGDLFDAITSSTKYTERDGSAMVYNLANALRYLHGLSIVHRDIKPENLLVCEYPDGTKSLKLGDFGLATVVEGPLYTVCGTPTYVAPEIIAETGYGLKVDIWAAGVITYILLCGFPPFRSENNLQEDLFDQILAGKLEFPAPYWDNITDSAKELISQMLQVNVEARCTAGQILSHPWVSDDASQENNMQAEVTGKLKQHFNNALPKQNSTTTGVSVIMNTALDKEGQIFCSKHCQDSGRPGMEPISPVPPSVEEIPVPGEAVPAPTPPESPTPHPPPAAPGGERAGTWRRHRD

## CNc1nc(Nc2ccc(S(=O)(=O)N3CCC(N4CCOCC4)CC3)cc2OC)nc2[nH]cc(Cl)c12 [Compound 12, 5-chloro-N2-(2-methoxy-4-((4-morpholinopiperidin-1-yl)sulfonyl)phenyl)-N4-methyl-7H-pyrrolo[2,3-d]pyrimidine-2,4-diamine]
[1]
  remaining binding at 1 µM: 96%
[2]
  remaining binding at 1 µM: 86%
[3]
  remaining binding at 1 µM: 98%
[4]
  remaining binding at 1 µM: 96%
[5]
  remaining binding at 1 µM: 67%

## CNc1nc(Nc2ccc(C(=O)N3CCC(N4CCOCC4)CC3)c3c2OCO3)nc2[nH]cc(Cl)c12 [Compound 75, (7-((5-chloro-4-(methylamino)-7H-pyrrolo[2,3-d]pyrimidin-2-yl)amino)benzo[d][1,3]dioxol-4-yl)(4-morpholinopiperidin-1-yl)methanone]
[1]
  remaining binding at 1 µM: 99%
[2]
  remaining binding at 1 µM: 68%
[3]
  remaining binding at 1 µM: 47%
[4]
  remaining binding at 1 µM: 79%
[5]
  remaining binding at 1 µM: 73%

## CNc1nc(Nc2ccc(P3(=O)CCN(C4CCOCC4)CC3)cc2OC)nc2[nH]cc(Cl)c12 [Compound 77, 4-(4-((5-chloro-4-(methylamino)-7H-pyrrolo[2,3-d]pyrimidin-2-yl)amino)-3-methoxyphenyl)-1-(tetrahydro-2H-pyran-4-yl)-1,4-azaphosphinane 4-oxide]
[1]
  remaining binding at 1 µM: 100%
[2]
  remaining binding at 1 µM: 72%
[3]
  remaining binding at 1 µM: 89%
[4]
  remaining binding at 1 µM: 91%
[5]
  remaining binding at 1 µM: 60%
